Results as given in patent US4593090A, “Novel nitrosourea compounds, method for preparing same, and pharmaceutical composition containing same” (Gogo Kimura, priority 1981, dated 1986).

Experiments:
Leukemia L1210 = experiment: Activity against Leukemia L1210, intraperitoneal, increase in life span of mice; format: in vivo, female mice (BDF1 family); conditions: for ED (maximum ILS) / ED30: Mus musculus, L1210, ip, ip once a day for 5 successive days; for ED (maximum ILS): daily dosage giving maximum increase of life span, read-out: O.D. (optimum dosage); for ED30: daily dosage increasing average survival days by 30%, read-out: ILS30; for Survivors after 60 days / Max. ILS % / Therapeutic ratio TR: ip; for Survivors after 60 days: 6-membered group; for Max. ILS %: 60-day observation, versus control; for Therapeutic ratio TR: O.D./ILS30
Procedure: Tests were conducted in accordance with the method for measuring antitumor activity of National Cancer Center Tokyo (A, Hoshi et al, Farumashia 9 464 (1973)). Test compounds were each intraperitoneally (referred to as ip) or orally (referred to as op) administered once a day for 5 successive days to a 6-membered group of femal mice (BDF1 family, each weighing 20 to 23 g) 24 hours after 1×10^5 cells of Leukemia L1210 have been implantated into the abdominal cavities of the mice, and the effect was evaluated by comparing the survival days of treated groups with those of an untreated group of mice (control group) in 60-day observation. An increase percentage of life span (ILS%) was calculated from said average survival days compared with those of the control group. Further, therapeutic ratio (O.D./ILD30, referred to as T.R.) of each tested compound was calculated from the daily dosage of the compound necessary to increase said average survival days by 30% as compared with the control group (this dosage is referred to as ILS 30) and the daily dosage giving a maximum increase of life span to mice implantated with L1210 cells, namely an optimum dosage (referred to as O.D.). The results of five successive days intraperitoneal administrations of test compounds were shown in Tables I to III, and those of five successive oral administrations in Table IV.

[1] = Acute toxicity (LD50, Behrens-Karber method); format: in vivo, ICR mice; conditions: mouse, in vivo, ip, mortality during 30 days
Procedure: Test compounds, dissolved or suspended in 0.5% aqueous CMC, were each intraperitoneally administered to ICR mice in a dose of 0.1 ml per 10 g body weight. LD50 (mg/kg) value of each test compound was calculated from the mortality of mice during 30 days by the Behrens-Karber method.

| SMILES | ED (maximum ILS) (Leukemia L1210) [mg/kg] | ED30 (Leukemia L1210) [mg/kg] | Survivors after 60 days (Leukemia L1210) | Max. ILS % (Leukemia L1210) [%] | Therapeutic ratio TR (Leukemia L1210) | LD50 at 720 h [1] [mg/kg] |
| --- | --- | --- | --- | --- | --- | --- |
| CC(C)CO[C@@H]1O[C@H](CN(CC(C)(C)C)C(=O)N(CCCl)N=O)[C@@H](O)[C@H](O)[C@H]1O [Compound 184, 3-neopentyl-3-(isobutyl β-D-glucopyranose-6-yl)-1-(2-chloroethyl)-1-nitrosourea] | 170 | 2.93 | 6/6 | > 700 | 58.0 | 540 |
| CC(C)COC1OC(CO)C(N(C(=O)N(CCCl)N=O)C(C)C)C(O)C1O [Compound 92, 3-isopropyl-3-(isobutyl α-D-glucopyranose-4-yl)-1-(2-chloroethyl)-1-nitrosourea] | 100 | 3.14 | 3/6 | > 360 | 31.8 | 335 |
| CC(C)CO[C@@H]1O[C@H](CN(CCC(C)(C)C)C(=O)N(CCCl)N=O)[C@@H](O)[C@H](O)[C@H]1O [Compound 189, 3-(3,3-dimethyl-n-butyl)-2-(isobutyl β-D-glucopyranose-6-yl)-1-(2-chloroethyl)-1-nitrosourea] | 150 | 3.1 | 6/6 | > 700 | 48.4 | 480 |
| CC(C)CO[C@H]1O[C@H](CO)[C@@H](O)[C@H](O)[C@H]1N(Cc1ccccc1)C(=O)N(CCCl)N=O [Compound 62, 3-benzyl-3-(isobutyl α-D-glucopyranose-2-yl)-1-(2-chloroethyl)-1-nitrosourea] | 200 | 7.8 | 3/6 | > 340 | 25.6 | 565 |
| O=NN(CCCl)C(=O)N(CCC1CCCC1)C1C(O)C(CO)OC(OC2CCCCC2)C1O [Compound 88, 3-(2-cyclopentylethyl)-3-(cyclohexyl α-D-glucopyranose-3-yl)-1-(2-chloroethyl)-1-nitrosourea] | 200 | 6.62 | 3/6 | > 360 | 30.2 | 710 |
| COCC(C)N(C(=O)N(CCCl)N=O)C1C(O)C(CO)OC(OC2CCCCC2)C1O [Compound 87, 3-(1-methyl-2-methoxyethyl)-3-(cyclohexyl α-D-glucopyranose-3-yl)-1-(2-chloroethyl)-1-nitrosourea] | 200 | 4.24 | 6/6 | > 700 | 47.2 | 720 |
| CC(C)CN(C(=O)N(CCCl)N=O)[C@H]1[C@@H](OC2CCCCC2)O[C@H](CO)[C@@H]1O [Compound 166, 3-isobutyl-3-(cyclohexyl α-D-xylofuranose-2-yl)-1-(2-chloroethyl)-1-nitrosourea] | 150 | 4.75 | 3/6 | > 345 | 31.6 | 450 |
| O=NN(CCCl)C(=O)N(CCCCO)C1C(OC2CCCCC2)OC(CO)C(O)C1O [Compound 66, 3-(4-hydroxy-n-butyl)-3-(cyclohexyl α-D-glucopyranose-2-yl)-1-(2-chloroethyl)-1-nitrosourea] | 200 | 8.55 | 3/6 | > 345 | 23.4 | 620 |
| CC(C)CN(C[C@H]1O[C@H](OC2CCCCC2)[C@H](O)[C@@H](O)[C@@H]1O)C(=O)N(CCCl)N=O [Compound 36, 3-isobutyl-3-(cyclohexylα-D-glucopyranose-6-yl)-1-(2-chloroethyl)-1-nitrosourea] | 180 | 3.69 | 6/6 | > 700 | 48.8 | 580 |
| CCOCCCOC1OC(CO)C(O)C(O)C1N(C(=O)N(CCCl)N=O)C(C)CC [Compound 69, 3-sec-butyl-3-(3-ethoxy-n-propyl α-D-glucopyranose-2-yl)-1-(2-chloroethyl)-1-nitrosourea] | – | – | 4/6 | > 435 | – | 560 |
| CC(C)CO[C@H]1O[C@H](CN(C(=O)N(CCCl)N=O)C(C)C)[C@@H](O)[C@H](O)[C@H]1O [Compound 13, 3-isopropyl-3-(isobutyl α-D-glucopyranose-6-yl)-1-(2-chloroethyl)-1-nitrosourea] | 120 | 2.77 | 6/6 | > 700 | 43.3 | 375 |
| COCC(C)O[C@H]1O[C@H](CN(CC2CC2)C(=O)N(CCCl)N=O)[C@@H](O)[C@H](O)[C@H]1O (stereo partly drawn) [Compound 34, 3-cyclopropylmethyl-3-(1-methyl-2-methoxyethyl α-D-glucopyranose-6-yl)-1-(2-chloroethyl)-1-nitrosourea] | 150 | 2.34 | 6/6 | > 700 | 64.1 | 480 |
| O=NN(CCCl)C(=O)N(CC1CCCCC1)[C@H]1[C@@H](O)[C@@H](CO)O[C@H](OC2CCCCC2)[C@@H]1O [Compound 128, 3-cyclohexylmethyl-3-(cyclohexyl α-D-galactopyranose-3-yl)-1-(2-chloroethyl)-1-nitrosourea] | 200 | 5.99 | 3/6 | > 350 | 33.4 | 650 |
| Cc1ccc(CN(C[C@H]2O[C@H](OCC(C)C)[C@H](O)[C@@H](O)[C@H]2O)C(=O)N(CCCl)N=O)cc1 [Compound 111, 3-(p-methylbenzyl)-3-(isobutyl α-D-galactopyranose-6-yl)-1-(2-chloroethyl)-1-nitrosourea] | 200 | 7.04 | 3/6 | > 345 | 28.4 | 600 |
| COCCN(C(=O)N(CCCl)N=O)[C@H]1[C@H](OC2CCCCC2)OC[C@H](O)[C@@H]1O [Compound 155, 3-(2-methoxyethyl)-3-(cyclohexyl α-L-arabinopyranose-2-yl)-1-(2-chloroethyl)-1-nitrosourea] | 160 | 2.64 | 6/6 | > 700 | 60.6 | 520 |
| CC(C)(C)O[C@H]1O[C@H](CN(C(=O)N(CCCl)N=O)C2CCCCC2)[C@@H](O)[C@H](O)[C@H]1O [Compound 173, 3-cyclohexyl-3-(tert-butyl α-D-glucopyranose-6-yl)-1-(2-chloroethyl)-1-nitrosourea] | 160 | 3.16 | 5/6 | > 630 | 50.6 | 510 |
| CCCCO[C@H]1O[C@H](CN(CCC)C(=O)N(CCCl)N=O)[C@H](O)[C@H](O)[C@H]1O [Compound 106, 3-n-propyl-3-(n-butyl α-D-galactopyranose-6-yl)-1-(2-chloroethyl)-1-nitrosourea] | 160 | 3.74 | 3/6 | > 340 | 42.8 | 430 |
